The values that follow come from patent publication US9592272B2, “Treatment of osteoarthritis with incretin hormones or analogues thereof” (UNIVERSITE PIERRE ET MARIE CURIE (PARIS 6), priority 2012, dated 2017).

The conditions of data set [1]: clinical trials (Krzeski et al., 2007); cited from earlier work.
Data set [2] concerns MMP-3, MMP-9 and MMP-13 expression in osteoblasts. As to the kind of experiment: Expression of MMP-3, MMP-9 and MMP-13 in primary osteoblasts in response to IL-1β (real-time quantitative RT-PCR). In kind it is cell-based, murine. To be noted: peptide 10 nM, IL-1β 0.1 or 1 ng/ml, 24 h; for overexpression of the prodegradative enzymes MMP-3 and MMP-13 in the osteoblasts in response to an IL-1β treatment: FIGS. 2A, B and C. How it is done:
The murine osteoblasts were obtained after enzymatic digestion of the skulls of 4- to 6-day-old mice. The cells were amplified for 3 weeks, in the presence of ascorbic acid and β-glycerophosphate. The osteoblasts at the end of culture formed a three-dimensional membrane (Sanchez et al., 2009).
(§1) The cultures were deprived in a serum-free culture medium for 24 h before treatment.
(§2) The RNAs were extracted using the RNeasy Mini kit (Qiagen) and then reverse-transcribed using the Omniscript kit (Qiagen). The expression level of the genes of interest was quantified by real-time PCR (Light Cycler LC480), relative to the HPRT reference gene, using the following primers: […]

In data set [3] the test system is MMP-3, MMP-9 and MMP-13 expression in chondrocytes. Kind of data set: Expression of MMP-3, MMP-9 and MMP-13 in primary chondrocytes in response to IL-1β (real-time quantitative RT-PCR). In kind it is cell-based, murine. Conditions: peptide 10 nM; IL-1β 0.1 or 1 ng/ml, 24 h; FIG. 1. How it is done:
(§3) The murine chondrocytes were obtained after enzymatic digestion of femoral heads and knees of 4- to 6-day-old mice. The cells were amplified in a monolayer for 1 week (Gosset et al., 2008).
as §1, §2

For data set [4] the following is noted: in vivo, iv; cited from earlier work.
The subject of data set [5] is prostaglandin E2 (PGE2) release by chondrocytes. Kind of data set: Prostaglandin E2 release by chondrocytes in response to IL-1β (EIA on culture supernatants). Format: cell-based, murine. How it is done:
as §3, §1
The amount of PGE2 produced by the cells was measured by means of the prostaglandin E2 monoclonal EIA kit (Cayman) using the culture supernatants.

As to `COc1ccc(C(=O)Nc2ccc(S(=O)(=O)NC(CC#CCN3CCOCC3)C(=O)O)cc2)cc1` (centres unmarked) [PG-116800], in data set [1], the “toxicity revealed during clinical trials” value is on record as “musculoskeletal toxicity”.
On to GIP (1-42), for which the “overexpression of the prodegradative enzymes MMP-3 and MMP-13 in the osteoblasts in response to an IL-1β treatment” value in data set [2] is given as “inhibits”. Besides, in data set [3], the “overexpression of the prodegradative enzymes MMP-3, MMP-9 and/or MMP-13 in the chondrocytes in response to an IL-1β treatment” value is “inhibits”. The half-life time result in data set [4] is recorded as “approximately 2 minutes”.
As to GLP-1 (7-36) amide, the “overexpression of MMP-9 in the osteoblasts in response to an IL-1β treatment” value in data set [2] (FIG. 2D) was “inhibits”. Also, the “overexpression of the prodegradative enzymes MMP-3 and MMP-13 in the osteoblasts in response to an IL-1β treatment” value in data set [2] is reported as “inhibits”. Moreover, in data set [3], the “overexpression of the prodegradative enzymes MMP-3, MMP-9 and/or MMP-13 in the chondrocytes in response to an IL-1β treatment” value is “inhibits”. Moreover, the “release of prostaglandin E2 (PGE2) by the chondrocytes in response to an IL-1β treatment” value in data set [5] (peptide 10 nM, IL-1β 1 ng/ml, 24 h, FIG. 3) is given as “inhibits”. The “induction of PGE2 by peptide alone, chondrocytes” value in data set [5] (peptide alone, without IL-1β) is reported as “does not induce”.
In the case of GLP-1 (7-37), the “overexpression of the prodegradative enzymes MMP-3 and MMP-13 in the osteoblasts in response to an IL-1β treatment” value in data set [2] is given as “inhibits”. The “overexpression of the prodegradative enzymes MMP-3, MMP-9 and/or MMP-13 in the chondrocytes in response to an IL-1β treatment” value in data set [3] is “inhibits”.
